Results on four compounds are retold here after US20240132492A1, “PYRIDOPYRIMIDINE-BASED COMPOUND AND APPLICATION THEREOF” (JINAN UNIVERSITY, priority 2021, published 2024).

Type in all cases: cell-based
The test system of one test is MDA-MB-453. Kind of test: CCK-8 tumor cell proliferation, MDA-MB-453. Particulars: Homo sapiens, MDA-MB-453 cells, 72 hours. On the procedure:
(§1) Tumor cells (see Table 2 to Table 5) were inoculated in 96-well plates in complete culture medium (2000-3000 cells/well). After overnight incubation, the compounds with different concentrations (0.000508 μM-10 μM) were used to treat the cells separately for 72 hours. CCK-8 (Cell Counting Kit 8, Dojindo Laboratories, Kumamoto, Japan) experiment was used to evaluate cell proliferation. GraphPad Prism 5.0 software (La Jolla, CA) was used to calculate the half-maximal inhibitory concentration (IC50) values by fitting the concentration response curve. Each IC50 value was represented as an average value±SD.

The test system of the next test is H1299. Kind of test: CCK-8 tumor cell proliferation, H1299. Particulars: Homo sapiens, NCI-H1299, H1299 cells, 72 hours. As to the method:
as §1

Test [1] addresses T1, AKT3 (Homo sapiens, UniProt Q9Y243). Kind of test: Immunoblotting, AKT3 protein level in other tumor cells (H1975, PC-9, H1299, A549). On the set-up: analyzed the protein levels of AKT1/2/3 using immunoblotting method as described in Embodiment 105; endogenous in cells; host or cells: H1975, PC-9, H1299, A549. The settings on record: H1975, PC-9, H1299 and A549 cells, different concentrations, 24 hours. As to the method:
(§2) Conventional Western Blot (immunoblotting) was used for detection, as follows: a certain number of H1975-OR cells were planted on a 96 well plate, adherent cultured in an incubator overnight, and added a certain concentration of compound to act for 24 hours. 1×SDS lysis buffer with protease and phosphatase inhibitors was used to lyse cells. Cell lysates were separated by SDS-PAGE and transferred to PVDF membrane. Then, at room temperature, the PCDF membrane was taken out and immersed in a sealing solution (5% BSA TBS solution containing 0.5% Tween-20) for sealing treatment for 1 hour, and then incubated with a specific primary antibody at 4° C. overnight. The imprints were washed with TBST and incubated with horseradish peroxidase (HRP) labeled secondary antibodies at room temperature for 2 hours. Finally, ECL plus fluorescence detection reagent (Thermo Scientific, Waltham, MA) was used for protein development, and the Amersham Imager 600 system (GE, America) was used for photography. The detection results were processed using ImageJ software to obtain the grayscale value G (Density).
(§3) Tumor cells ([…], and A549) was incubated with different concentrations of compound ZX-HYT-11 for 24 hours, and then analyzed the protein levels of AKT1/2/3 using immunoblotting method as described in Embodiment 105.
(In western blotting, separated proteins are transferred to a membrane and probed.)

A further test has as its system AKT1/2. Kind of test: Immunoblotting, AKT1/2 protein levels in other tumor cells (H1975, PC-9, H1299, A549). The settings on record: H1975, PC-9, H1299 and A549 cells, different concentrations, 24 hours. On the procedure: as §2, §3
The subject of the next test is A431. Kind of test: CCK-8 tumor cell proliferation, A431. Particulars: Homo sapiens, A-431, A431 cells, 72 hours. On the procedure:
as §1

In another test the test system is HCC1937. Kind of test: CCK-8 tumor cell proliferation, HCC1937. The settings on record: Homo sapiens, HCC1937 cells, 72 hours. On the procedure: as §1
The next test relates to Bel-7402. Briefly: CCK-8 tumor cell proliferation, Bel-7402. The settings on record: Homo sapiens, Bel-7402 cells, 72 hours. As to the method:
as §1

Another test relates to H1975. Briefly: CCK-8 tumor cell proliferation, H1975. Particulars: Homo sapiens, NCI-H1975, H1975 cells, 72 hours. The gist of the method: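 Steps: plate 2000-3000 cells/well in complete medium; incubate overnight; add compound, 0.000508 μM-10 μM, 72 h; assess proliferation with CCK-8; fit curves for IC50, expressed as mean±SD.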
For the next test, the system named is PC-9. Kind of test: CCK-8 tumor cell proliferation, PC-9. The settings on record: Homo sapiens, PC-9 cells, 72 hours. On the procedure:
as §1

For the next test, the system named is MDA-MB-231. Kind of test: CCK-8 tumor cell proliferation, MDA-MB-231. The settings on record: Homo sapiens, MDA-MB-231 cells, 72 hours. As to the method:
as §1

Test [2] has as its target T1, AKT3. Briefly: Western Blot, degradation of AKT3 protein in H1975-OR cells. On the set-up: endogenous in cells; host or cells: H1975-OR (osimertinib-resistant H1975). Particulars: 1000 nM, 24 hours, maximum degradation rate. In outline:
(§4)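 H1975-OR cells are Osimertinib-resistant H1975, adapted stepwise from 50 nM to 3 μM Osimertinib. Cells were treated with compound for 24 h, lysed, and immunoblotted with ECL detection. Band grayscale density was quantified.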

The next test addresses T2, AKT1 (Homo sapiens, UniProt P31749).
T2 construct: AKT1, AKT2, and AKT3 proteins in H1975-OR cells; endogenous in cells; host or cells: H1975-OR (osimertinib-resistant H1975)
Kind of test: Western Blot, degradation of AKT1 protein in H1975-OR cells. The settings on record: 1000 nM, 24 hours, maximum degradation rate. The gist of the method:
as §4

For the next test, the target named is T3, AKT2 (Homo sapiens, UniProt P31751).
T3 construct: AKT1, AKT2, and AKT3 proteins in H1975-OR cells; endogenous in cells; host or cells: H1975-OR (osimertinib-resistant H1975)
Kind of test: Western Blot, degradation of AKT2 protein in H1975-OR cells. Particulars: 1000 nM, 24 hours, maximum degradation rate. In outline:
as §4

The test system of the next test is H1975OR. Briefly: CCK-8 tumor cell proliferation, H1975OR. Particulars: H1975OR cells (Osimertinib resistant), 72 hours. In outline: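 Osimertinib-resistant H1975 cells, selected by raising Osimertinib stepwise from 50 nM to 3 μM, were treated for 72 h with compound at 0.000508–10 μM. Proliferation was read by CCK-8, and IC50 came from fitting the concentration–response curve, given as mean ± SD.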

A further test relates to HCC827. Kind of test: CCK-8 tumor cell proliferation, HCC827. Particulars: Homo sapiens, HCC827 cells, 72 hours. As to the method: as §1
Another test deals with BT-549. Briefly: CCK-8 tumor cell proliferation, BT-549. The settings on record: Homo sapiens, BT-549 cells, 72 hours. On the procedure:
as §1

In a further test the test system is Huh7. Briefly: CCK-8 tumor cell proliferation, Huh7. Particulars: Homo sapiens, Huh-7, Huh7 cells, 72 hours. As to the method: as §1
The next test relates to PANC-1. Briefly: CCK-8 tumor cell proliferation, PANC-1. Particulars: Homo sapiens, PANC-1 cells, 72 hours. On the procedure: as §1
Another test concerns HCT116. Kind of test: CCK-8 tumor cell proliferation, HCT116. The settings on record: Homo sapiens, HCT-116, HCT116 cells, 72 hours. As to the method: as §1
The subject of another test is MIAPACA-2. Briefly: CCK-8 tumor cell proliferation, MIAPACA-2. Particulars: Homo sapiens, MIA PaCa-2, MIAPACA-2 cells, 72 hours. As to the method: as §1
Another test relates to BXPC-3. Kind of test: CCK-8 tumor cell proliferation, BXPC-3. Particulars: Homo sapiens, BXPC-3 cells, 72 hours. As to the method:
as §1

For a further test, the system named is K562. Briefly: CCK-8 tumor cell proliferation, K562. The settings on record: Homo sapiens, K562 cells, 72 hours. As to the method:
as §1

In a further test the test system is A549. Briefly: CCK-8 tumor cell proliferation, A549. The settings on record: Homo sapiens, A549 cells, 72 hours. On the procedure: as §1

T1 sequence (Q9Y243 whole entry): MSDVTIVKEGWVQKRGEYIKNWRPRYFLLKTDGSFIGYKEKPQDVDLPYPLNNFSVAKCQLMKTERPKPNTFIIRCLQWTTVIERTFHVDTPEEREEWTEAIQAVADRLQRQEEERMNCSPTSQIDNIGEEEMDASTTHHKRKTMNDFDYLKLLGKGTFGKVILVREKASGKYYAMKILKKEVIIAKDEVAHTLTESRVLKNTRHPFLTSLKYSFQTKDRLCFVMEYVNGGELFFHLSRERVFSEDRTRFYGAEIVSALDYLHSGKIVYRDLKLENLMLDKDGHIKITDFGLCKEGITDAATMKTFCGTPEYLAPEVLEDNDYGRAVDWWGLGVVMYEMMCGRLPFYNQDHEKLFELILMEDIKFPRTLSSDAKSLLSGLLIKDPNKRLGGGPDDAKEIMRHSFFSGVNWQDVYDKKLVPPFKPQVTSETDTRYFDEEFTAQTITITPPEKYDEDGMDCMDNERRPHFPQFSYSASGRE
T2 sequence (P31749 whole entry): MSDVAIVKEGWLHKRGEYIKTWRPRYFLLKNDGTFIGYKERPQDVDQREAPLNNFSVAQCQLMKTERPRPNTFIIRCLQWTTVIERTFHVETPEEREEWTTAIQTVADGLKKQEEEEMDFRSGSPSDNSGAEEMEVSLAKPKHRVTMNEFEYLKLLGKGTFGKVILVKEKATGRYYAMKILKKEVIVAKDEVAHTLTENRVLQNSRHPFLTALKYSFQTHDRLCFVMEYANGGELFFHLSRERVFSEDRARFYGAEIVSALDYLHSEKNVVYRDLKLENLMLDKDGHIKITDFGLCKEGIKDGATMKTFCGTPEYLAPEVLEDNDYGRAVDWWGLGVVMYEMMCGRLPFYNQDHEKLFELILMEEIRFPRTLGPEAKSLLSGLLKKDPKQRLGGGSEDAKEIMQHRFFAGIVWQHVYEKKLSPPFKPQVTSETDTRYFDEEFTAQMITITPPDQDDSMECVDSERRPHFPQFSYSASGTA
T3 sequence (P31751 whole entry): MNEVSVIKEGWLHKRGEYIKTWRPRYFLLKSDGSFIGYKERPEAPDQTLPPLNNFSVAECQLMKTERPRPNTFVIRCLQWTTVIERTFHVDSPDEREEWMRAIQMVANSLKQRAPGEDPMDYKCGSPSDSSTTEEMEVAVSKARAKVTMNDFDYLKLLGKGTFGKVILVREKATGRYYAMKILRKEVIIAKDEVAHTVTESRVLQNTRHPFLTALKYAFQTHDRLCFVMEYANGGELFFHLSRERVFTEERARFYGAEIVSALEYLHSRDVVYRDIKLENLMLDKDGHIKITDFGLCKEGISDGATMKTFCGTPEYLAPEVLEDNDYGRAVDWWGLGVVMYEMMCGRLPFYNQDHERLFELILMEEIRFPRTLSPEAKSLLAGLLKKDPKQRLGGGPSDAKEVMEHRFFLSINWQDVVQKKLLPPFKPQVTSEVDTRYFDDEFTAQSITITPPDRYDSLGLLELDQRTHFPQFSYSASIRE

As a reminder, the IC50 is the concentration that gives 50% inhibition. The low end stands for greater potency in that assay, the high end for weaker potency in that assay. For orientation: Dmax means the largest share of the target that was removed. As to `COc1cc(N2CCN(CCCCCCCCCCCCNC(=O)CC34CC5CC(CC(C5)C3)C4)CC2)ccc1Nc1ncc2c(C)cc(=O)n(-c3cccc(NC(=O)C4CC4)c3)c2n1` [ZX-HYT-11, N-(3-(2-((4-(4-(12-(2-(((3R, 5R, 7R)-adamantan-1-yl)acetylamino)dodecyl)piperazin-1-yl)-2-methoxyphenyl)amino)-5-methyl-7-oxypyridino [2,3-d]pyrimidin-8 (7H)-yl)phenyl)cyclopropane formamide], the IC50 is more than 10 µM with MDA-MB-453; 0.27 ± 0.0723 µM in the test with H1299; 0.0093 ± 0.0004 µM in the test with A431; more than 10 µM in the test on HCC1937; more than 10 µM in the test with Bel-7402; 2.39 ± 2 µM in the test on H1975. Moreover, the IC50 was 0.0839 ± 0.0135 µM in the test on PC-9; 0.0294 µM in the test on MDA-MB-231; 0.007 ± 0.0006 µM with H1975OR; 0.0932 ± 0.014 µM in the test on HCC827; more than 10 µM with BT-549; 0.686 µM in the test on Huh7. Further, the “degradation of AKT3 protein” value on AKT3 [1] is “could selectively degrade AKT3 protein”. For the same compound, in the test on AKT1/2, the “effect on AKT1/2 protein levels” value is reported as “without affecting AKT1/2”. The values for the Dmax at 1 µM on AKT3 [2], on AKT1 and on AKT2 were 91.1%, 0% and 15.3%, respectively.
For the compound `COc1cc(N2CCN(CCNC(=O)CC34CC5CC(CC(C5)C3)C4)CC2)ccc1Nc1ncc2c(C)cc(=O)n(-c3cccc(NC(=O)C4CC4)c3)c2n1` [ZX-HYT-51, N-(3-(2-((4-(4-(2-(2-((3R, 5R, 7R)-adamantan-1-yl)acetylamino)ethyl)piperazin-1-yl)-2-methoxyphenyl))amino)-5-methyl-7-oxypyridino [2,3-d]pyrimidin-8 (7H)-yl) phenyl) cyclopropane formamide], the IC50 in the test with PANC-1 was 0.125 µM; in the test with MDA-MB-453, more than 10 µM; with HCT116, 0.0553 µM; in the test with MIAPACA-2, 0.0513 µM; in the test on HCC1937, more than 10 µM; in the test with Bel-7402, more than 3 µM. In addition, the IC50 was 0.333 µM in the test on BXPC-3; 0.145 µM in the test with MDA-MB-231; 0.263 µM with K562; 0.644 µM in the test with BT-549; more than 10 µM with Huh7; 0.629 µM with A549.
Consider `COc1cc(N2CCN(CCCCNC(=O)CC34CC5CC(CC(C5)C3)C4)CC2)ccc1Nc1ncc2c(C)cc(=O)n(-c3cccc(NC(=O)C4CC4)c3)c2n1` [ZX-HYT-52, N-(3-(2-((4-(4-(4-(2-((3R, 5R, 7R)-adamantan-1-yl)acetylamino)butyl)piperazin-1-yl)-2-methoxyphenyl))amino)-5-methyl-7-oxypyridino [2,3-d]pyrimidin-8 (7H)-yl) phenyl) cyclopropane formamide], for which the IC50 in the test on PANC-1 was 0.126 µM; in the test with MDA-MB-453, 2.5 µM; in the test with HCT116 it was 0.104 µM; in the test on MIAPACA-2, 0.0721 µM; in the test on HCC1937 it was 0.002 to 0.005 µM; in the test on Bel-7402, 0.568 µM. The IC50 in the test on BXPC-3 stood at 0.303 µM; in the test on MDA-MB-231, 1.99 µM; with K562, 0.25 µM; in the test on BT-549, 0.478 µM; in the test with Huh7 it was 1.35 µM; in the test on A549, 0.833 µM.
For the compound `COc1cc(N2CCN(C(=O)C34CC5CC(CC(C5)C3)C4)CC2)ccc1Nc1ncc2c(C)cc(=O)n(-c3cccc(NC(=O)C4CC4)c3)c2n1` [ZX-HYT-65, N-(3-(2-((4-(4-((3R, 5R, 7R)-adamantan-1-carbonyl)piperazin-1-yl)-2-methoxyphenyl)amino)-5-methyl-7-oxypyridino [2,3-d]pyrimidin-8 (7H)-yl)phenyl) cyclopropane formamide], the IC50 in the test with PANC-1 is 0.179 µM; with MDA-MB-453, more than 10 µM; with HCT116 it was 0.0729 µM; in the test with MIAPACA-2 it was 0.0511 µM; in the test with HCC1937, more than 10 µM; with Bel-7402, more than 10 µM. Besides, the IC50 was 0.447 µM in the test with BXPC-3; 0.104 µM in the test with MDA-MB-231; 0.234 µM in the test on K562; more than 10 µM with BT-549; 0.335 µM in the test with Huh7; 1.17 µM in the test on A549.
